Read-outs that look alike come from different tables or passages of the source. Some results are limits rather than exact numbers.

Among the data in patent US8557816B2, “Aurora kinase modulators and method of use” (Amgen Inc., priority 2007, dated 2013) are IC50 values, retold here.

One assay has as its target T1, AuroraA-TPX2 (Homo sapiens, UniProt O14965).
T1 construct: 20 μL of AuroraA-TPX2 KD GST for a final volume of about 41 μL; GST
T1 sequence (O14965 133-383 limits assumed): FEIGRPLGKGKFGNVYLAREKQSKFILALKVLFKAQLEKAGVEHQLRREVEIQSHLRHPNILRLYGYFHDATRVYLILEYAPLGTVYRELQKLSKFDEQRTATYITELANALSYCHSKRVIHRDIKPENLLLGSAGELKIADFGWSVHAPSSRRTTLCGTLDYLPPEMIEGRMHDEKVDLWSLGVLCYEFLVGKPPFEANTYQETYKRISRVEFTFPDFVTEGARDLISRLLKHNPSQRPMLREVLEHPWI
T1 sequence (Q9ULW0 1-43 partner limits assumed): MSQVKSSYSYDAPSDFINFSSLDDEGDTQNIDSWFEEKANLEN
The assay is described as follows: AuroraA-TPX2 Homogeneous Time Resolved Fluorescent (HTRF) kinase assay. In kind it is biochemical. In outline:
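HTRF read-out (Eu 615 nm to APC 655 nm) of phosphorylated biotin-PLK, detected with 0.02 nM europium anti-phosphoPLK antibody and 0.0005 mg/mL SA-APC after overnight equilibration.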
A general note: TR-FRET usually uses a lanthanide donor and a delayed reading to cut background.

Another assay has as its target T2, AuroraB (Homo sapiens, UniProt Q96GD4).
T2 construct: 20 μL of AuroraB FL H is for a final volume of 41 μL; His
The assay is described as follows: AuroraB Homogeneous Time Resolved Fluorescent (HTRF) kinase assay. In kind it is biochemical. In short, it runs like this: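 Full-length His-tagged kinase phosphorylates biotinylated Histone H3 (0.1 μM final) with ATP in pH 7.5 HEPES containing MgCl, MnCl, DTT and BSA for about 90 min. EDTA-containing detection mix with SA-APC and Eu-anti-phosphoHistone H3 then equilibrated about 60 min; HTRF read with 320 nm excitation, emissions 615/655 nm.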

The mark [1] stands for this setting: average, read-out: AurA_IC50_IP (uM Avg).
Setting [2] is: average, read-out: AurB_IC50_IP (uM Avg).

T2 sequence (Q96GD4 whole entry): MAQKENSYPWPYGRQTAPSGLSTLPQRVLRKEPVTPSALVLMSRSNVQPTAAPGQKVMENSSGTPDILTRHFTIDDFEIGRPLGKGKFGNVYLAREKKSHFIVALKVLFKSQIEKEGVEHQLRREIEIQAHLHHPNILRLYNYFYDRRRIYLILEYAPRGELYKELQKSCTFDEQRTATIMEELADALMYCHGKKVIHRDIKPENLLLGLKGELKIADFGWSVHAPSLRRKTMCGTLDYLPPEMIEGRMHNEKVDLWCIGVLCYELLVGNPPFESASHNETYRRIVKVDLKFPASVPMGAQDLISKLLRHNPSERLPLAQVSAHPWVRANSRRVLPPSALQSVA

On to `COc1cnc2c(Oc3ccc(Nc4nnc(-c5ccc(C)nc5)c5ccccc45)cc3)ccnc2c1` [compound 268, N-(4-((7-(methyloxy)-1,5-naphthyridin-4-yl)oxy)phenyl)-4-(6-methyl-3-pyridinyl)-1-phthalazinamine], for which the figures for the IC50 on AuroraA-TPX2 (setting [1]) and on AuroraB (setting [2]) were 0.064 µM and 0.003 µM, respectively.
For `COc1ccc2nccc(Oc3ccc(Nc4nnc(-c5cc(C)cs5)c5ccccc45)cc3)c2c1` [compound 269, N-(4-((6-(methyloxy)-4-quinolinyl)oxy)phenyl)-4-(4-methyl-2-thienyl)-1-phthalazinamine], the figures for the IC50 at AuroraA-TPX2 (setting [1]) and on AuroraB (setting [2]) were 0.049 µM and 0.006 µM, respectively.
Take `CCN(CC)C(=O)c1cc2nccc(Oc3ccc(Nc4nnc(-c5ccc(Cl)cc5)c5ccccc45)cc3)c2s1` [compound 270, 7-((4-((4-(4-chlorophenyl)-1-phthalazinyl)amino)phenyl)oxy)-N,N-diethylthieno[3,2-b]pyridine-2-carboxamide]: the IC50 at AuroraA-TPX2 (setting [1]) was 0.084 µM; on AuroraB (setting [2]), 0.01 µM.
The corresponding values for `COc1cnc2c(Sc3ccc(Nc4nnc(-c5cc(C)cs5)c5ccccc45)cc3)ccnc2c1` [compound 271, N-(4-(7-methoxy-1,5-naphthyridin-4-ylthio)phenyl)-4-(4-methylthiophen-2-yl)phthalazin-1-amine] are 0.066 µM and 0.024 µM.
Take `c1ccc2c(-c3ccc4c(c3)CCO4)nnc(Nc3ccc(Oc4ccnc5ccsc45)cc3)c2c1` [compound 272, 4-(2,3-dihydrobenzofuran-5-yl)-N-(4-(thieno[3,2-b]pyridin-7-yloxy)phenyl)phthalazin-1-amine]: the IC50 turned out to be 0.033 µM on AuroraA-TPX2 (setting [1]) and 0.001 µM at AuroraB (setting [2]).
In the case of `c1ccc(-c2nnc(Nc3ccc(Oc4ncnc5[nH]ccc45)cc3)c3ccccc23)cc1` [compound 273, N-(4-(7H-pyrrolo[2,3-d]pyrimidin-4-yloxy)phenyl)-4-phenylphthalazin-1-amine], the IC50 on AuroraA-TPX2 (setting [1]) stood at 1.66 µM; at AuroraB (setting [2]), 0.039 µM.
The corresponding values for `CCc1cc(-c2ccccc2)nnc1Nc1ccc(Sc2ccnc3cc(OC)cnc23)cc1` [compound 274, 4-ethyl-N-(4-(7-methoxy-1,5-naphthyridin-4-ylthio)phenyl)-6-phenylpyridazin-3-amine] are 0.066 µM and 0.004 µM.
The corresponding values for `CCc1cc(-c2ccc(Cl)cc2)nnc1Nc1ccc(Oc2ccnc3cc(OC)cnc23)nc1` [compound 275, 6-(4-chlorophenyl)-4-ethyl-N-(6-(7-methoxy-1,5-naphthyridin-4-yloxy)pyridin-3-yl)pyridazin-3-amine] are 0.156 µM and 0.011 µM.
The corresponding values for `Fc1cc(F)c2c(Oc3ccc(Nc4nnc(-c5ccccc5)c5ccccc45)cc3)ccnc2c1` [compound 276, N-(4-(5,7-difluoroquinolin-4-yloxy)phenyl)-4-phenylphthalazin-1-amine] are 0.67 µM and 0.018 µM.
Take `Cc1nc(-c2nnc(Nc3ccc(Oc4ccnc5cc(C#N)ccc45)cc3)c3ccccc23)sc1C` [compound 277, 4-((4-((4-(4,5-dimethyl-1,3-thiazol-2-yl)-1-phthalazinyl)amino)phenyl)oxy)-7-quinolinecarbonitrile]: the IC50 was determined as 0.065 µM on AuroraA-TPX2 (setting [1]) and 0.007 µM on AuroraB (setting [2]).
As to `COc1ccc2nccc(Oc3ccc(Nc4nnc(-c5ccc(Cl)cn5)c5ccccc45)cc3)c2c1` [compound 278, 4-(5-chloro-2-pyridinyl)-N-(4-((6-(methyloxy)-4-quinolinyl)oxy)phenyl)-1-phthalazinamine], the figures for the IC50 at AuroraA-TPX2 (setting [1]) and at AuroraB (setting [2]) were 0.082 µM and 0.004 µM, respectively.
`c1ccc2c(-c3ccc4c(c3)OCO4)nnc(Nc3ccc(Oc4ccnc5ccsc45)cc3)c2c1` [compound 279, 4-(1,3-benzodioxol-5-yl)-N-(4-(thieno[3,2-b]pyridin-7-yloxy)phenyl)-1-phthalazinamine]: the IC50 at AuroraA-TPX2 (setting [1]) was 0.078 µM; on AuroraB (setting [2]), 0.001 µM.
`COc1cnc2c(Oc3ccc(Nc4nnc(-c5cnc6[nH]ccc6c5)c5ccccc45)cc3)ccnc2c1` [compound 280, N-(4-((7-(methyloxy)-1,5-naphthyridin-4-yl)oxy)phenyl)-4-(1H-pyrrolo[2,3-b]pyridin-5-yl)-1-phthalazinamine]: the figures for the IC50 on AuroraA-TPX2 (setting [1]) and on AuroraB (setting [2]) were 0.062 µM and 0.002 µM, respectively.
As to `COc1cnc2c(Oc3ccc(Nc4nnc(-c5ccccc5)c(C)c4C)cc3)ccnc2c1` [compound 281, 4,5-dimethyl-N-(4-((7-(methyloxy)-1,5-naphthyridin-4-yl)oxy)phenyl)-6-phenyl-3-pyridazinamine], the results for the IC50 on AuroraA-TPX2 (setting [1]) and on AuroraB (setting [2]) were 0.696 µM and 0.019 µM, respectively.
The corresponding values for `COc1cnc2c(Oc3ccc(Nc4nnc(-c5ccnc(Cl)c5)c5ccccc45)cc3)ccnc2c1` [compound 283, 4-(2-chloro-4-pyridinyl)-N-(4-((7-(methyloxy)-1,5-naphthyridin-4-yl)oxy)phenyl)-1-phthalazinamine] are 0.1 µM and 0.01 µM.
As to `COc1cnc2c(Oc3ccc(Nc4nnc(-c5ccc(Cl)cc5)c5ccccc45)cc3F)ccnc2c1` [compound 284, 4-(4-chlorophenyl)-N-(3-fluoro-4-((7-(methyloxy)-1,5-naphthyridin-4-yl)oxy)phenyl)-1-phthalazinamine], the IC50 was determined as 0.019 µM on AuroraA-TPX2 (setting [1]) and 0.007 µM on AuroraB (setting [2]).
The corresponding values for `c1ccc(-c2nnc(Nc3ccc(Sc4ccnc5cccnc45)cc3)c3ccccc23)cc1` [compound 285, N-(4-(1,5-naphthyridin-4-ylthio)phenyl)-4-phenyl-1-phthalazinamine] are 0.029 µM and 0.002 µM.
The corresponding values for `Cc1noc(-c2cc3nccc(Oc4ccc(Nc5nnc(-c6ccc(Cl)cc6)c6ccccc56)cc4)c3s2)n1` [compound 286, 4-(4-chlorophenyl)-N-(4-((2-(3-methyl-1,2,4-oxadiazol-5-yl)thieno[3,2-b]pyridin-7-yl)oxy)phenyl)-1-phthalazinamine] are 0.087 µM and 0.022 µM.
For `C#Cc1ccc(-c2nnc(Nc3ccc(Oc4ccnc5cc(OC)cnc45)cc3)c3ccccc23)cc1` [compound 287, 4-(4-ethynylphenyl)-N-(4-((7-(methyloxy)-1,5-naphthyridin-4-yl)oxy)phenyl)-1-phthalazinamine], the IC50 worked out at 0.061 µM at AuroraA-TPX2 (setting [1]) and 0.013 µM on AuroraB (setting [2]).
As for `Cc1noc(-c2cc3nccc(Oc4ccc(Nc5nnc(-c6ccccc6)c6ccccc56)cc4)c3s2)n1` [compound 288, N-(4-((2-(3-methyl-1,2,4-oxadiazol-5-yl)thieno[3,2-b]pyridin-7-yl)oxy)phenyl)-4-phenyl-1-phthalazinamine], the IC50 at AuroraA-TPX2 (setting [1]) amounted to 0.302 µM; at AuroraB (setting [2]), 0.039 µM.
For the molecule `Cc1csc(-c2nnc(Nc3ccc(Oc4ccnc5ccsc45)cc3)c3ccccc23)c1` [compound 289, 4-(4-methyl-2-thienyl)-N-(4-(thieno[3,2-b]pyridin-7-yloxy)phenyl)-1-phthalazinamine], the IC50 on AuroraA-TPX2 (setting [1]) came to 0.068 µM; on AuroraB (setting [2]) it was 0.011 µM.
The corresponding values for `Clc1ccc(-c2nnc(Nc3ccc(Oc4ncnc5[nH]ccc45)cc3)c3ccccc23)cc1` [compound 290, 4-(4-chlorophenyl)-N-(4-(7H-pyrrolo[2,3-d]pyrimidin-4-yloxy)phenyl)-1-phthalazinamine] are 0.35 µM and 0.009 µM.
For the molecule `COc1cnc2c(Oc3ccc(Nc4nnc(-c5ccc6c(c5)OC(F)(F)O6)c5ccccc45)cc3)ccnc2c1` [compound 291, 4-(2,2-difluoro-1,3-benzodioxol-5-yl)-N-(4-((7-(methyloxy)-1,5-naphthyridin-4-yl)oxy)phenyl)-1-phthalazinamine], the IC50 on AuroraA-TPX2 (setting [1]) worked out at 0.031 µM; on AuroraB (setting [2]), 0.01 µM.
The corresponding values for `COc1ccc2nccc(Sc3ccc(Nc4nnc(-c5ccccc5)c5ccccc45)cc3)c2c1` [compound 292, N-(4-((6-(methyloxy)-4-quinolinyl)thio)phenyl)-4-phenyl-1-phthalazinamine] are 0.144 µM and 0.011 µM.
The corresponding values for `FC1(F)Oc2ccc(-c3nnc(Nc4ccc(Oc5ccnc6ccsc56)cc4)c4ccccc34)cc2O1` [compound 293, 4-(2,2-difluoro-1,3-benzodioxol-5-yl)-N-(4-(thieno[3,2-b]pyridin-7-yloxy)phenyl)-1-phthalazinamine] are 0.266 µM and 0.006 µM.
For `c1ccc(-c2nnc(Nc3ccc(Sc4ccnc5ccccc45)cc3)c3ccccc23)cc1` [compound 294, 4-phenyl-N-(4-(4-quinolinylthio)phenyl)-1-phthalazinamine], the IC50 on AuroraA-TPX2 (given as class symbol, read-out: AurA_IC50_IP (class symbol)) was less than 0.1 µM; on AuroraB (given as class symbol, read-out: AurB_IC50_IP (class symbol)), less than 0.1 µM.
On to `COc1ccc2nccc(Sc3ccc(Nc4nnc(-c5ccc(Cl)cc5)c5ccccc45)cc3)c2c1` [compound 297, 4-(4-chlorophenyl)-N-(4-(6-methoxyquinolin-4-ylthio)phenyl)phthalazin-1-amine], for which the IC50 on AuroraA-TPX2 (setting [1]) was determined as 0.036 µM; on AuroraB (setting [2]), 0.031 µM.
The corresponding values for `COc1cnc2c(Oc3ccc(Nc4nnc(-c5cc(Cl)cs5)c5ccccc45)cc3)ccnc2c1` [compound 298, 4-(4-chloro-2-thienyl)-N-(4-((7-(methyloxy)-1,5-naphthyridin-4-yl)oxy)phenyl)-1-phthalazinamine] are 0.014 µM and 0.023 µM.
